Laboratory results from patent publication US11945801B2, “Bicyclic aza compounds as muscarinic M1 and/or M4 receptor agonists” (Heptares Therapeutics Limited, priority 2018, dated 2024).

Key:
Type in all cases: cell-based
[1] = molecular target: T1, human muscarinic M2 receptor (Homo sapiens, UniProt P08172); assay: Alphascreen Surefire phospho-ERK1/2 functional assay, M2; conditions: for EC50: CHO cells stably expressing human M2, agonist 5 min, 37° C., read-out: pEC50 M2 (converted); for Emax: CHO, read-out: % Emax cf. ACh, M2, CHO cells stably expressing human M2, Emax relative to ACh
T1 sequence (P08172 1-466): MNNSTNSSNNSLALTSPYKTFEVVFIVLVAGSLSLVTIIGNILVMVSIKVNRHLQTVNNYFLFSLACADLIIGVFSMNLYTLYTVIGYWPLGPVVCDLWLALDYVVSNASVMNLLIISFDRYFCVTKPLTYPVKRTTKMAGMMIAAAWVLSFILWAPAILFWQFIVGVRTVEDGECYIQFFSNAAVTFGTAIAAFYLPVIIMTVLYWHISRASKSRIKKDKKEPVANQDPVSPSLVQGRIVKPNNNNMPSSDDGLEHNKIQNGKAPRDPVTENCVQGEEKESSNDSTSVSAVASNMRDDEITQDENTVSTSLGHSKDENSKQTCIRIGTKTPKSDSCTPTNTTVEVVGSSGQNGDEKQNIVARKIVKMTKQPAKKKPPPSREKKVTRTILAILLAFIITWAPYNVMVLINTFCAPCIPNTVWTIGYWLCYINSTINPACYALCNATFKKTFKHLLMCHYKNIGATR
Protocol: (§1) ERK1/2 phosphorylation is a downstream consequence of both Gq/11 and Gi/o protein coupled receptor activation, making it highly suitable for the assessment of M1, M3 (Gq/11 coupled) and M2, M4 receptors (Gi/o coupled), rather than using different assay formats for different receptor subtypes. CHO cells stably expressing the human muscarinic M1, M2, M3 or M4 receptor were plated (25K/well) onto 96-well tissue culture plates in MEM-alpha+10% dialysed FBS. Once adhered, cells were serum-starved overnight. Agonist stimulation was performed by the addition of 5 μL agonist to the cells for 5 min (37° C.). Media was removed and 50 μL of lysis buffer added. After […], a 4 μL sample was transferred to 384-well plate and 7 μL of detection mixture added.
(§2) Isomer assignment (Isomer 1, Isomer 2, etc.) is based on the retention time of the compound using the separation technique that was performed in the final purification step. By implication, this could be reversed phase HPLC, chiral HPLC or chiral SFC retention time, and this will vary from compound to compound.

[2] = molecular target: T2, human muscarinic M1 receptor (Homo sapiens, UniProt P11229); assay: Alphascreen Surefire phospho-ERK1/2 functional assay, M1; conditions: for % Emax cf. ACh, M1 / EC50: CHO cells stably expressing human M1; for % Emax cf. ACh, M1 / Emax: Emax relative to ACh; for EC50: agonist 5 min, 37° C., read-out: pEC50 M1 (converted); for Emax: CHO, read-out: % Emax cf. ACh, M1, CHO cells stably expressing human M1
T2 sequence (P11229 1-460): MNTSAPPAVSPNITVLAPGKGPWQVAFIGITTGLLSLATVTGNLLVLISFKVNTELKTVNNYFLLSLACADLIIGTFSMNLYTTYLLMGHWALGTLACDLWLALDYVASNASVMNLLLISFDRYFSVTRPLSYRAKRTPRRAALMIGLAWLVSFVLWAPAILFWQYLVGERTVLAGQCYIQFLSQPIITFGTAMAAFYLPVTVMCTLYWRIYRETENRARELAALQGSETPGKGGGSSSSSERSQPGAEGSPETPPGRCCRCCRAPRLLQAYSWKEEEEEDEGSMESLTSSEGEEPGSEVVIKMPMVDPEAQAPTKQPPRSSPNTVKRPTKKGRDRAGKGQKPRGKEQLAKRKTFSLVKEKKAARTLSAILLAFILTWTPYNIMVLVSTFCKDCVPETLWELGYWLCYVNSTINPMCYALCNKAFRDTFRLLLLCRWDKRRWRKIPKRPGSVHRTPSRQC
Protocol: as §1, §2

[3] = molecular target: T3, human muscarinic M3 receptor (Homo sapiens, UniProt P20309); assay: Alphascreen Surefire phospho-ERK1/2 functional assay, M3; conditions: for EC50: CHO cells stably expressing human M3, agonist 5 min, 37° C., read-out: pEC50 M3 (converted); for Emax: CHO, read-out: % Emax cf. ACh, M3, CHO cells stably expressing human M3, Emax relative to ACh
T3 construct: expressed in transfected cells
Protocol: as §1, §2

[4] = molecular target: T4, human muscarinic M4 receptor (Homo sapiens, UniProt P08173); assay: Alphascreen Surefire phospho-ERK1/2 functional assay, M4; conditions: for % Emax cf. ACh, M4 / EC50: CHO cells stably expressing human M4; for % Emax cf. ACh, M4 / Emax: Emax relative to ACh; for EC50: agonist 5 min, 37° C., read-out: pEC50 M4 (converted); for Emax: CHO, read-out: % Emax cf. ACh, M4, CHO cells stably expressing human M4
T4 construct: expressed in transfected cells
T4 sequence (P08173 1-479): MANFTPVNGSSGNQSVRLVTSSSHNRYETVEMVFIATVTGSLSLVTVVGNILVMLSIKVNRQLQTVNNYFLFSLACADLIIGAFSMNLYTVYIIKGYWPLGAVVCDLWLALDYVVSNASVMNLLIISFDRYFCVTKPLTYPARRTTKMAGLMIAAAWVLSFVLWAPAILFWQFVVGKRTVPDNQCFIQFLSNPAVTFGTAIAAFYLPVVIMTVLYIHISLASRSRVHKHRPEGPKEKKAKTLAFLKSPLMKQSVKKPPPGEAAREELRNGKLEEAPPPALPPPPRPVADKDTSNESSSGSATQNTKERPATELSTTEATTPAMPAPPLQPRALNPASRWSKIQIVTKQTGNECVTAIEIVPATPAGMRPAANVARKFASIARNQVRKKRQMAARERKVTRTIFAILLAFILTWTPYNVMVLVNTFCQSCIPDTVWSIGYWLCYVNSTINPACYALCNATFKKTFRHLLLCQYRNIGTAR
Protocol: as §1, §2

T3 sequence (P20309 whole entry): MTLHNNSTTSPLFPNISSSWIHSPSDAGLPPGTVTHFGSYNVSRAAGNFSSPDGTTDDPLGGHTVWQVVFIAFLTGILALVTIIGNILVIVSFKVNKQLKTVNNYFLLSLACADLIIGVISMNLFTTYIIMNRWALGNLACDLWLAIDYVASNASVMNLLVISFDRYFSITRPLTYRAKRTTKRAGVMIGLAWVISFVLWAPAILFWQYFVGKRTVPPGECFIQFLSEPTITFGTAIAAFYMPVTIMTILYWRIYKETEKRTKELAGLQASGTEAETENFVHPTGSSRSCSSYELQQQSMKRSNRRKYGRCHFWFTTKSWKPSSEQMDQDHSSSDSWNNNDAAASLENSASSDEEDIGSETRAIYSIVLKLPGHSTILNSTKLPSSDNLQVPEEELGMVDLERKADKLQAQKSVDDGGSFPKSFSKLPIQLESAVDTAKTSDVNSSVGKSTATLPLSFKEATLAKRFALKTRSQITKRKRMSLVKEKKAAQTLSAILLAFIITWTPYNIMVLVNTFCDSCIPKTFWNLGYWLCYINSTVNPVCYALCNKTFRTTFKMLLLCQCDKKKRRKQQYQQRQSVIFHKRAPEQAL

| SMILES | EC50 [1] [nM] | Emax [1] [%] | % Emax cf. ACh, M1 [2] [%] | EC50 [2] [nM] | EC50 [3] [nM] | Emax [3] [%] | % Emax cf. ACh, M4 [4] [%] | EC50 [4] [nM] | Emax [2] [%] | Emax [4] [%] | % Emax cf. ACh, M1 ([2]; listed as 4-9 Isomer 1) [%] | % Emax cf. ACh, M4 ([4]; listed as 4-9 Isomer 1) [%] |
| --- | --- | --- | --- | --- | --- | --- | --- | --- | --- | --- | --- | --- |
| CCN(CC)C(=O)OC1CN(C2CCC3(C2)CN(C(=O)OC)C3)C1 (single isomer, unassigned) [Example 4-6 Isomer 2, Methyl 6-(3-((diethylcarbamoyl)oxy)azetidin-1-yl)-2-azaspiro[3.4]octane-2-carboxylate] | > 20000 | 9 | 93 | 214 | > 20000 | 11 | 32 | 339 |  |  |  |  |
| CCOC(=O)N1CC2(CCC(N3CC(OC(=O)N4CCCC4)C3)C2)C1 (single isomer, unassigned) [Example 4-7 Isomer 1, Ethyl 6-(3-((pyrrolidine-1-carbonyl)oxy)azetidin-1-yl)-2-azaspiro[3.4]octane-2-carboxylate] | > 20000 | 7 |  | 75.9 | > 20000 | 8 |  | 49 | 51 | 29 |  |  |
| CCOC(=O)N1CC2(CCC(N3CC(OC(=O)N4CCOCC4)C3)C2)C1 (single isomer, unassigned) [Example 4-8 Isomer 1, 1-(2-(Ethoxycarbonyl)-2-azaspiro[3.4]octan-6-yl)azetidin-3-yl morpholine-4-carboxylate] | > 20000 | 2 |  | 57.5 | > 20000 | 4 |  | > 20000 | 72 | 14 |  |  |
| CCOC(=O)N1CC2(CCC(N3CC(OC(=O)N4CCCOCC4)C3)C2)C1 (single isomer, unassigned) [Example 4-9 Isomer 1, 1-(2-(Ethoxycarbonyl)-2-azaspiro[3.4]octan-6-yl)azetidin-3-yl 1,4-oxazepane-4-carboxylate] | > 20000 | 3 |  | 57.5 | > 20000 | 2 |  | > 20000 |  |  | 37 | 7 |
| CCOC(=O)N1CC2CCC1CC2N1CC(OC(=O)N2CCCCCC2)C1 (single isomer, unassigned) [Example 6-4 Isomer 1, Ethyl 5-(3-((azepane-1-carbonyl)oxy)azetidin-1-yl)-2-azabicyclo[2.2.2]octane-2-carboxylate] | > 20000 | 9 |  | 117 | > 20000 | 5 |  | 490 | 86 | 50 |  |  |
